US20090274675A1, “Migraine tonic” (priority 2008, published 2009)

Assays:
[1] = system: women suffering from severe migraine; assay: Intravenous magnesium in intra-partum and post-partum women with severe migraine; format: in vivo, human; conditions: intravenous injection
Method: Use of magnesium is useful to control this neuronal excitability, which is one factor that perpetuates migraine. […] In this invention the unit dosage of Magnesium Citrate to be used is 250 to 500 mg. per total formulation dosage.

migraine headache = conditions: several clinical trials in the U.S and Europe; cited from earlier work

[Mg+2] [magnesium, Magnesium]
effect on severe migraine [1]: dramatic effect

Cc1cc2nc3c(=O)[nH]c(=O)nc-3n(C[C@H](O)[C@H](O)[C@H](O)CO)c2cc1C [riboflavin, Riboflavin]
improvement in migraine headache (migraine headache): statistically significant
